Drawing on article PMC10386772, “Novel covalent CDK7 inhibitor potently induces apoptosis in acute myeloid leukemia and synergizes with Venetoclax” (Journal of Experimental & Clinical Cancer Research : CR, 2023), this text covers IC50 for 1 substance.

Usually IC50 stands for the concentration needed to halve the response being measured. A lower IC50 goes with inhibition by little substance.

The test addresses CDK7 (Homo sapiens, UniProt P50613). The test is described as follows: LANCE TR-FRET in vitro kinase assay (U-Light-MBP peptide, […] ATP, […] min; […] at […] min, […] at […] min); bioTHZ1 competition pull-down target occupancy in MOLM13 cells. Format: biochemical.

Sequence of CDK7 (P50613 2-346): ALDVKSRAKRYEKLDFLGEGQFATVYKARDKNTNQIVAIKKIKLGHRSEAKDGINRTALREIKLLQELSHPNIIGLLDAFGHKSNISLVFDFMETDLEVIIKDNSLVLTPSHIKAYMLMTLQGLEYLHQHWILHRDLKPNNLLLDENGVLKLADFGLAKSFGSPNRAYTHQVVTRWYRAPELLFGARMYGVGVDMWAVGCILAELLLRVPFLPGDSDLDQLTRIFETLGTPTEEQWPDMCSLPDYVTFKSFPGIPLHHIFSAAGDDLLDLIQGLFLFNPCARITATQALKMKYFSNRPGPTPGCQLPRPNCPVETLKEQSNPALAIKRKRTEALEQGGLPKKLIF

Substance XL102 came in with an IC50 of 0.9 nM.
